Measurements from patent US4477443A, “Tylosin derivatives, their preparation and pharmaceutical compositions containing them” (Zaidan Hojin Biselbutsu Kagaku Kenkyu Kai (Microbial …, priority 1981, dated 1984).
Converted amounts (≈) assume the structure as drawn. Where two headings read alike, the source gives them in different places.

How the values were obtained:
Format in all cases: cell-based
Staph. aureus 193 = assay: antimicrobial activity (MIC), Table I; settings: Staphylococcus aureus; Staph. aureus 193; read-out: MIC
Staph. aureus 209 P = assay: antimicrobial activity (MIC), Table I; settings: Staphylococcus aureus; Staph. aureus 209 P; read-out: MIC
Staph. aureus MS 9861 = assay: antimicrobial activity (MIC), Table I; settings: Staphylococcus aureus, MS9861; Staph. aureus MS 9861; read-out: MIC
Sarcina lutea PCI 1001 = assay: antimicrobial activity (MIC), Table I; settings: Micrococcus luteus, PCI1001; Sarcina lutea PCI 1001; read-out: MIC
B. subtilis NRRL B-558 = assay: antimicrobial activity (MIC), Table I; settings: Bacillus subtilis, NRRLB558; B. subtilis NRRL B-558; read-out: MIC
Coryn. bovis 1810 = assay: antimicrobial activity (MIC), Table I; settings: Corynebacterium bovis; Coryn. bovis 1810; read-out: MIC
E. coli NIHJ = assay: antimicrobial activity (MIC), Table I; settings: Escherichia coli; E. coli NIHJ; read-out: MIC
E. coli K-12 = assay: antimicrobial activity (MIC), Table I; settings: Escherichia coli, K12; E. coli K-12; read-out: MIC
E. coli K-12 R-5 = assay: antimicrobial activity (MIC), Table I; settings: Escherichia coli, K12R5; E. coli K-12 R-5; read-out: MIC
E. coli K-12 ML 1410 = assay: antimicrobial activity (MIC), Table I; settings: Escherichia coli, K12ML1410
E. coli K-12 LA 290 R 55 = assay: antimicrobial activity (MIC), Table I; settings: Escherichia coli
Kleb. pneumoniae PCI 602 = assay: antimicrobial activity (MIC), Table I; settings: Klebsiella pneumoniae, PCI602; Kleb. pneumoniae PCI 602; read-out: MIC
[1] = test system: Shigella dysenteriae JS 11910; assay: antimicrobial activity (MIC), Table I; settings: JS11910
Sal. enteritidis 1891 = assay: antimicrobial activity (MIC), Table I; settings: Salmonella enterica; Sal. enteritidis 1891; read-out: MIC
Pro. vulgaris OX-19 = assay: antimicrobial activity (MIC), Table I; settings: Proteus vulgaris, OX19
B. subtilis ATCC 6633 = assay: antimicrobial activity (MIC), Table II; settings: Bacillus subtilis, ATCC6633; B. subtilis ATCC 6633; read-out: MIC
B. cereus = assay: antimicrobial activity (MIC), Table II; settings: Bacillus cereus; B. cereus; read-out: MIC
Staph. aureus ATCC 6538P = assay: antimicrobial activity (MIC), Table II; settings: Staphylococcus aureus, ATCC6538P
Staph. aureus KC-11 = assay: antimicrobial activity (MIC), Table II; settings: Staphylococcus aureus, KC11
Staph. aureus 226 = assay: antimicrobial activity (MIC), Table II; settings: Staphylococcus aureus
[2] = test system: Staph. epidermidis IID 886; assay: antimicrobial activity (MIC), Table II; settings: Staphylococcus epidermidis, IID886
[3] = Pro. vulgaris OX-19, read-out: MIC
[4] = Staph. aureus ATCC 6538P, read-out: MIC
[5] = Staph. aureus KC-11, read-out: MIC
[6] = Staph. aureus 226, read-out: MIC

Row | SMILES | MIC (Staph. aureus 193) [µg/mL] | MIC (Staph. aureus 209 P) [µg/mL] | MIC (Staph. aureus MS 9861) [µg/mL] | MIC (Sarcina lutea PCI 1001) [µg/mL] | MIC (B. subtilis NRRL B-558) [µg/mL] | MIC (Coryn. bovis 1810) [µg/mL] | MIC (E. coli NIHJ) [µg/mL] | MIC (E. coli K-12) [µg/mL] | MIC (E. coli K-12 R-5) [µg/mL] | MIC (E. coli K-12 LA 290 R 55) [µg/mL] | MIC (Kleb. pneumoniae PCI 602) [µg/mL] | MIC [1] [µg/mL] | MIC (Sal. enteritidis 1891) [µg/mL] | MIC (B. subtilis ATCC 6633) [µg/mL] | MIC (B. cereus) [µg/mL] | MIC (Staph. aureus ATCC 6538P; [4]) [µg/mL] | MIC (Staph. aureus KC-11; [5]) [µg/mL] | MIC (Staph. aureus 226; [6]) [µg/mL] | MIC [2] [µg/mL] | further results
1 | CCC1OC(=O)CC(O)C(C)C(OC2OC(C)CC(N(C)C)C2O)C(CC=O)CC(C)C(=O)C=CC(C)=CC1CN1CCCCCCC1 (stereo not drawn) [Example 19, 23,4'-dideoxy-23-heptamethyleneiminomycaminosyl tylonolide] | 0.2 (≈ 0.295 µM) | < 0.2 | 0.78 (≈ 1.15 µM) | < 0.2 | 0.39 (≈ 0.576 µM) | < 0.2 | 0.39 (≈ 0.576 µM) | 0.78 (≈ 1.15 µM) | 0.78 (≈ 1.15 µM) | 0.39 (≈ 0.576 µM) | 0.2 (≈ 0.295 µM) | < 0.2 | < 0.2 | – | – | – | – | – | – | MIC (E. coli K-12 ML 1410; E. coli K-12 ML 1410, read-out: MIC): 0.78 µg/mL (≈ 1.15 µM); MIC (Pro. vulgaris OX-19): 0.39 µg/mL (≈ 0.576 µM)
2 | CCCN(CCC)CC1C=C(C)C=CC(=O)C(C)CC(CC=O)C(OC2OC(C)C(O)C(N(C)C)C2O)C(C)C(O)CC(=O)OC1CC (stereo not drawn) [Example 6, 23-deoxy-23-dipropylaminomycaminosyl tylonolide] | < 0.2 | < 0.2 | 1.56 (≈ 2.29 µM) | < 0.2 | 0.39 (≈ 0.573 µM) | < 0.2 | 0.78 (≈ 1.15 µM) | 1.56 (≈ 2.29 µM) | 1.56 (≈ 2.29 µM) | 1.56 (≈ 2.29 µM) | 0.78 (≈ 1.15 µM) | 0.39 (≈ 0.573 µM) | 1.56 (≈ 2.29 µM) | – | – | – | – | – | – | MIC (E. coli K-12 ML 1410): 3.12 µg/mL (≈ 4.58 µM); MIC (Pro. vulgaris OX-19; [3]): 1.56 µg/mL (≈ 2.29 µM)
3 | CCC1OC(=O)CC(O)C(C)C(OC2OC(C)C(O)C(N(C)C)C2O)C(CC=O)CC(C)C(=O)C=CC(C)=CC1CN1CCCCC1 (stereo not drawn) [Example 13, 23-deoxy-23-piperidinomycaminosyl tylonolide] | 0.39 (≈ 0.587 µM) | 0.39 (≈ 0.587 µM) | 0.78 (≈ 1.17 µM) | < 0.2 | 0.39 (≈ 0.587 µM) | < 0.2 | 0.78 (≈ 1.17 µM) | 1.56 (≈ 2.35 µM) | 1.56 (≈ 2.35 µM) | 1.56 (≈ 2.35 µM) | 0.39 (≈ 0.587 µM) | < 0.2 | 0.78 (≈ 1.17 µM) | – | – | – | – | – | – | MIC (E. coli K-12 ML 1410): 3.12 µg/mL (≈ 4.69 µM); MIC (Pro. vulgaris OX-19; [3]): 1.56 µg/mL (≈ 2.35 µM)
4 | CCC1OC(=O)CC(O)C(C)C(OC2OC(C)C(O)C(N(C)C)C2O)C(CC=O)CC(C)C(=O)C=CC(C)=CC1CN(CC)CC (stereo not drawn) [Example 5, 23-deoxy-23-diethylamino mycaminosyl tylonolide] | 0.78 (≈ 1.19 µM) | 0.78 (≈ 1.19 µM) | 12.5 (≈ 19.1 µM) | < 0.2 | 0.78 (≈ 1.19 µM) | 0.78 (≈ 1.19 µM) | 1.56 (≈ 2.39 µM) | 1.56 (≈ 2.39 µM) | 1.56 (≈ 2.39 µM) | 3.12 (≈ 4.78 µM) | 1.56 (≈ 2.39 µM) | 1.56 (≈ 2.39 µM) | 3.12 (≈ 4.78 µM) | – | – | – | – | – | – | MIC (E. coli K-12 ML 1410): 3.12 µg/mL (≈ 4.78 µM); MIC (Pro. vulgaris OX-19): 1.56 µg/mL (≈ 2.39 µM)
5 | CCC1OC(=O)CC(O)C(C)C(OC2OC(C)CC(N(C)C)C2O)C(CC=O)CC(C)C(=O)C=CC(C)=CC1CN(CC)CC(F)(F)F (stereo not drawn) [Example 74, 23,4'-Dideoxy-23-N-(2,2,2-trifluoroethyl)ethylaminomycaminosyl tylonolide] | – | – | – | – | – | – | – | – | – | – | – | – | – | 0.78 (≈ 1.13 µM) | 0.78 (≈ 1.13 µM) | 0.78 (≈ 1.13 µM) | 0.78 (≈ 1.13 µM) | 0.78 (≈ 1.13 µM) | 0.78 (≈ 1.13 µM) | –
6 | CCC1OC(=O)CC(O)C(C)C(OC2OC(C)CC(N(C)C)C2O)C(CC=O)CC(C)C(=O)C=CC(C)=CC1CN(C)CCO (stereo not drawn) [Example 66, 23,4'-dideoxy-23-N-(2-hydroxyethyl)methylaminomycaminosyl tylonolide] | – | – | – | – | – | – | – | – | – | – | – | – | – | 1.56 (≈ 2.44 µM) | ≤ 0.2 | 0.78 (≈ 1.22 µM) | 1.56 (≈ 2.44 µM) | 1.56 (≈ 2.44 µM) | 0.78 (≈ 1.22 µM) | –
7 | CCC1OC(=O)CC(O)C(C)C(OC2OC(C)C(O)C(N(C)C)C2O)C(CC=O)CC(C)C(=O)C=CC(C)=CC1CN1CCC(C)CC1 (stereo not drawn) [Example 89, 23-deoxy-23-(4-methylpiperidino)mycaminosyl tylonolide] | – | – | – | – | – | – | – | – | – | – | – | – | – | 0.78 (≈ 1.15 µM) | – | 0.78 (≈ 1.15 µM) | 0.78 (≈ 1.15 µM) | 0.78 (≈ 1.15 µM) | 0.78 (≈ 1.15 µM) | –
8 | CCC1OC(=O)CC(O)C(C)C(OC2OC(C)C(O)C(N(C)C)C2O)C(CC=O)CC(C)C(=O)C=CC(C)=CC1CN1CCCCC1C (stereo not drawn) [Example 87, 23-deoxy-23-(2-methylpiperidino)mycaminosyl tylonolide] | – | – | – | – | – | – | – | – | – | – | – | – | – | 0.78 (≈ 1.15 µM) | – | 0.78 (≈ 1.15 µM) | 0.78 (≈ 1.15 µM) | 0.78 (≈ 1.15 µM) | 0.78 (≈ 1.15 µM) | –
9 | CCC1OC(=O)CC(O)C(C)C(OC2OC(C)CC(N(C)C)C2O)C(CC=O)CC(C)C(=O)C=CC(C)=CC1COC(=O)CSc1ccccn1 (stereo not drawn) [Example 53, 23-O-(pyridine-2-thioyl)acetyl-4'-deoxymycaminosyl tylonolide] | – | – | – | – | – | – | – | – | – | – | – | – | – | 0.39 (≈ 0.532 µM) | ≤ 0.2 | – | – | – | ≤ 0.2 | MIC (Staph. aureus ATCC 6538P): 0.39 µg/mL (≈ 0.532 µM); MIC (Staph. aureus KC-11): 0.39 µg/mL (≈ 0.532 µM); MIC (Staph. aureus 226; 226): 0.39 µg/mL (≈ 0.532 µM)
10 | CCC1OC(=O)CC(O)C(C)C(OC2OC(C)CC(N(C)C)C2O)C(CC=O)CC(C)C(=O)C=CC(C)=CC1CNC1CC1 (stereo not drawn) [Example 96, 23,4'-dideoxy-23-cyclopropylaminomycaminosyl tylonolide] | – | – | – | – | – | – | – | – | – | – | – | – | – | 0.78 (≈ 1.26 µM) | 0.39 (≈ 0.628 µM) | – | 0.78 (≈ 1.26 µM) | 0.78 (≈ 1.26 µM) | 0.39 (≈ 0.628 µM) | MIC (Staph. aureus ATCC 6538P): 0.39 µg/mL (≈ 0.628 µM)
11 | CCC1OC(=O)CC(O)C(C)C(OC2OC(C)CC(N(C)C)C2O)C(CC=O)CC(C)C(=O)C=CC2(C)OC2C1CN(C)C (stereo not drawn) [Example 61, 23,4'-dideoxy-23-dimethylamino-12,13-epoxymycaminosyl tylonolide] | – | – | – | – | – | – | – | – | – | – | – | – | – | 0.78 (≈ 1.25 µM) | ≤ 0.2 | 0.78 (≈ 1.25 µM) | 0.78 (≈ 1.25 µM) | 1.56 (≈ 2.5 µM) | 0.78 (≈ 1.25 µM) | –
12 | CCC1OC(=O)CC(O)C(C)C(OC2OC(C)C(O)C(N(C)C)C2O)C(CC=O)CC(C)C(=O)C=CC(C)=CC1CN1CCCCCCC1 (stereo not drawn) [Example 90, 23-deoxy-23-heptamethyleneiminomycaminosyl tylonolide] | – | – | – | – | – | – | – | – | – | – | – | – | – | 0.39 (≈ 0.563 µM) | – | – | – | – | 0.39 (≈ 0.563 µM) | MIC (Staph. aureus ATCC 6538P): 0.39 µg/mL (≈ 0.563 µM); MIC (Staph. aureus KC-11): 0.39 µg/mL (≈ 0.563 µM); MIC (Staph. aureus 226; 226): 0.39 µg/mL (≈ 0.563 µM)
13 | CCC1OC(=O)CC(O)C(C)C(OC2OC(C)CC(N(C)C)C2O)C(CC=O)CC(C)C(=O)C=CC(C)=CC1CN(CC)CCO (stereo not drawn) [Example 67, 23,4'-dideoxy-23-N-ethyl(2-hydroxyethyl)aminomycaminosyl tylonolide] | – | – | – | – | – | – | – | – | – | – | – | – | – | 0.78 (≈ 1.19 µM) | 0.39 (≈ 0.597 µM) | 0.78 (≈ 1.19 µM) | 0.78 (≈ 1.19 µM) | 0.78 (≈ 1.19 µM) | 0.78 (≈ 1.19 µM) | –
